Reference: US10611731B2, “5-methyl-6-phenyl-4,5-dihydro-2H-pyridazin-3-one derivative” (OTSUKA PHARMACEUTICAL CO., LTD., priority 2016, dated 2020)

Legend:
[1] = tested on: human childhood brain tumor cell lines (PFSK-1); assay: Growth inhibitory activity against PFSK-1 cells (WST-8, Cell Counting Kit-8); format: cell-based; conditions: Homo sapiens, 72 h, 3 days incubation with test compound, WST-8 OD 450/630 nm, read-out: IC50 (concentration inhibiting 50% of the cell growth)
How it was run: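 Cells seeded in RPMI 1640 with 10% FBS and preincubated 24 h at 37 °C, 5% CO2, then exposed to compound for 3 days. IC50 (nM) from growth relative to untreated control.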

Row | Structure (SMILES) | IC50 [1] [nM] | melting point [°C]
1 | CC1CC(=O)NN=C1c1ccc(OCCCCO)c(Cl)c1O (stereo not shown) [Example 88, 6-[3-Chloro-2-hydroxy-4-(4-hydroxybutoxy)phenyl]-5-methyl-4,5-dihydro-2H-pyridazin-3-one] | 9.5 | 204.5 to 204.9
2 | C=Cc1c(OCCCCO)ccc(C2=NNC(=O)CC2C)c1F (stereo not shown) [Example 89, 6-[2-Fluoro-4-(4-hydroxybutoxy)-3-vinylphenyl]-5-methyl-4,5-dihydro-2H-pyridazin-3-one] | 4.9 | 106.4 to 107.4
